Data as given in patent US8981094B2, “Piperidine/piperazine derivatives” (Janssen Pharmaceutica N.V., priority 2007, dated 2015).

Target: T1, human DGAT1 (Homo sapiens, UniProt O75907)
T1 construct: FLAG (N); made in house; host or cells: SF9 insect cells (pFastBac baculovirus); total cell membranes
T1 sequence (O75907 1-488): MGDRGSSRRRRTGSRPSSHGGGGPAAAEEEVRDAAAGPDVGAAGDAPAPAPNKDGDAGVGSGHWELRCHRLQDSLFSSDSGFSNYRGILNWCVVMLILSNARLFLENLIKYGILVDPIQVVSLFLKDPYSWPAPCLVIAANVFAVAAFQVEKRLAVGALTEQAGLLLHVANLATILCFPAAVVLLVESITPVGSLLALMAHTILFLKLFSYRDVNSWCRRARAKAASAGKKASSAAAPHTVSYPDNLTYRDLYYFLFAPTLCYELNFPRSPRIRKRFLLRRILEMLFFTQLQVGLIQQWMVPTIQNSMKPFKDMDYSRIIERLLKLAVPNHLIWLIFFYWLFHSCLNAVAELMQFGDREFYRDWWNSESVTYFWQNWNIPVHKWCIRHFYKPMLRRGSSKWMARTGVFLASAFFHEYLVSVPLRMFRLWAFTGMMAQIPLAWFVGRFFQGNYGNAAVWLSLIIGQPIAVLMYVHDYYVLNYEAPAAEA
Test: Inhibition of DGAT1 activity, FlashPlate assay with DGAT1 membrane preparations and substrate micelles
Format: biochemical
Settings: pIC50 = -logIC50, IC50 values expressed in M
Description: A) Measurement of Inhibition of DGAT1 Activity by the Present Compounds
The inhibiting activity of the present compounds on DGAT1 activity was screened in a single well procedure assay using DGAT1 comprising membrane preparations and DGAT1 substrate comprising micelles and determining formed radio-active triacylglycerol coming in close proximity of a flashplate surface by radio luminescence.
Said assay is described in full detail in WO2006/067071, the content of which is incorporated herein by reference.
By DGAT1 activity is meant the transfer of coenzyme A activated fatty acids to the 3-position of 1,2-diacylglycerols, thus forming a triglyceride molecule, by enzyme DGAT1.
human DGAT1 (NM012079.2) was cloned into the pFastBac vector, containing translation start, a FLAG-tag at the N-terminus as described in literature and a viral Kozak sequence (AAX) preceding the ATG to improve expression in insect cells. Expression was done as described in literature (Cases, S., Smith, S. J., Zheng, Y., Myers H. M., Lear, S. R., Sande, E., Novak, S., Collins, C., Welch, C. B., Lusis, A. J., Erickson, S. K. and Farese, R. V. (1998) Proc. Natl. Acad. Sci. USA 95, 13018-13023.) using SF9 cells.
72 h transfected SF9 cells were collected by centrifugation (13000 rpm-15 min-4° C.) and lysed in 2×500 ml lysisbuffer (0.1M Sucrose, 50 mM KCl, 40 mM KH2PO4, 30 mM EDTA pH 7.2. Cells were homogenized by cell disruptor. After centrifugation 1380 rpm-15 min-4° C. (SN discarded), pellet was resuspended in 500 ml lysisbuffer and total cell membranes collected by ultracentrifugation at 34000 rpm(100 000 g) for 60 min (4° C.). The collected membranes were resuspended in lysis buffer, divided in aliquots and stored with 10% glycerol at −80° C. until use.
Add 1 ml dioleoyl-sn-glycerol (10 mg/ml) to 10 ml of L-α-phosphatidylcholine (1 mg/ml) and 10 ml of L-α-phosphatidyl-L-serine (1 mg/ml) in a thick glass recipient. Evaporate under nitrogen and put on ice for 15 minutes. Reconstitute in 10 ml Tris/HCl (10 mM, pH 7.4) by sonication on ice. The sonification process consists of sonification cycles of 10 seconds in the sonification bath followed by 10 seconds cool down on ice and repeating this sonification cycle till a homogeneous solution is obtained (takes about 15 minutes). The thus obtained micelles are stored at −20° C. till later use and contain DAG at a final concentration of 1.61 mM.
c) Substrate mix (for 1 384 well plate=3840 μl) • 612 μl micelles stock (51 μM final) • 16.6 μl oleoylCoA 9.7 mM • 23 μl [^3H]-oleoylCoA (49 Ci/mmol, 500 μCi/ml) • 3188.4 μl Tris pH 7.4, 10 mM
d) Enzyme mix (for 1 384 well plate=3520 μl) (5 μg/ml) • Add 11.73 μl of DGAT membrane stock (1500 μg/ml stock) to 3508 μl assay buffer.
e) Stop mix (for 1 384 well plate=7.68 ml) (250 mM) • Add 384 μl of N-ethylmaleimide (5M) to 3.456 ml DMSO 100%, and further dilute 3.84 ml of said solution with 3.84 ml DMSO 10%.
DGAT activity in membrane preparations was assayed in 50 mM Tris-HCl (pH 7.4), 150 mM MgCl2, 1 mM EDTA and 0.2% BSA, containing 50 μM DAG, 32 μg/ml PC/PS and 8.4 μM [^3H]-oleoylCoA (at a specific activity of 30 nCi/well) in a final volume of 50 μl in 384-well format using the red shifted Basic Image FlashPlate™ (Perkin Elmer Cat.No. SMP400).
In detail, 10 μl enzyme mix and 10 μl substrate mix were added to 30 μl of assay buffer, optionally in the presence of 1 μl DMSO (blank and controls) or 1 μl of the compound to be tested. This reaction mixture was incubated for 120 minutes at 37° C. and the enzymatic reaction stopped by adding 20 μl of the stop mix. The plates were sealed and the vesicles allowed to settle overnight at room temperature. Plates were centrifuged for 5 minutes at 1500 rpm and measured in Leadseeker. […]

SMILES | IC50
O=C(NCc1cccc(N2CCCC2)c1)c1ccc(N2CCN(C(=O)Nc3c(Cl)cc(CCN4CCCC4)cc3Cl)CC2)cc1 [Compound 227] | 11.7 nM
CC1CN(CC(=O)Nc2ccc(C3CCN(C(=O)Nc4c(Cl)cccc4Cl)CC3)cc2)CC(C)O1 (stereo not shown) [Compound 98] | 50.1 nM
O=C(CC1CCCCC1)Nc1ccc(C2CCN(C(=O)Nc3c(Cl)cccc3Cl)CC2)cc1 [Compound 124] | 166 nM
C#CCC(NC(=O)OC(C)(C)C)C(=O)Nc1ccc(C2CCN(C(=O)Nc3c(Cl)cccc3Cl)CC2)cc1 (stereo not shown) [Compound 220] | 19.1 nM
Cc1ccc(CC(=O)Nc2ccc(N3CCN(S(=O)(=O)c4ccccc4C)CC3)cc2)c(C)c1 [Compound 17] | 2240 nM
O=C(CCCc1ccccc1)Nc1ccc(N2CCN(C(=O)Nc3c(Cl)cc(C(=O)NCc4ccncc4)cc3Cl)CC2)cc1 [Compound 303] | 21.4 nM
O=C(CCc1ccccc1)Nc1ccc(C2CCN(C(=O)Nc3c(Cl)cccc3Cl)CC2)cc1 [Compound 131] | 25.7 nM
CSCC(NC(=O)OC(C)(C)C)C(=O)Nc1ccc(C2CCN(C(=O)Nc3c(Cl)cccc3Cl)CC2)cc1 (stereo not shown) [Compound 210] | 155 nM
CCc1cccc(N2CCN(CC(=O)Nc3ccc(C4CCN(C(=O)Nc5c(Cl)cccc5Cl)CC4)cc3)CC2)c1 [Compound 106] | 229 nM
COCCN1CCN(C(=O)c2cc(Cl)c(NC(=O)N3CCN(c4ccc(NC(=O)CCCc5ccccc5)cc4)CC3)c(Cl)c2)CC1 [Compound 275] | 4.17 nM
COc1ccc(CNC(=O)c2ccc(N3CCN(C(=O)Nc4c(Cl)cncc4Cl)CC3)cc2)cc1 [Compound 245] | 145 nM
CN1CCN(C(=O)c2cc(Cl)c(NC(=O)N3CCN(c4ccc(NC(=O)CCCc5ccccc5)cc4)CC3)c(Cl)c2)CC1 [Compound 290] | 10.5 nM
Cc1cc(C)cc(N2CCN(CC(=O)Nc3ccc(C4CCN(C(=O)Nc5c(Cl)cccc5Cl)CC4)cc3)CC2)c1 [Compound 105] | 170 nM
COc1ccc(C)cc1NC(=O)N1CCN(c2ccc(NC(=O)CCCc3ccccc3)cc2)CC1 [Compound 76] | 5620 nM
O=C(NCc1cccc(F)c1)c1ccc(N2CCN(C(=O)Cc3c(Cl)cccc3Cl)CC2)cc1 [Compound 247] | 155 nM
COc1ccc(CC(=O)Nc2ccc(N3CCN(C(=O)C(N)c4ccccc4Cl)CC3)cc2)cc1 (stereo not shown) [Compound 337] | 2450 nM
O=C(NCc1cccc(N2CCCC2)c1)c1ccc(N2CCN(C(=O)Nc3c(Cl)cc(CN4CCCC4)cc3Cl)CC2)cc1 [Compound 224] | 8.32 nM
CC(NC(=O)c1ccc(N2CCN(C(=O)Cc3c(Cl)cccc3Cl)CC2)cc1)c1ccc(F)cc1 (stereo not shown) [Compound 250] | 174 nM
Cc1ccc(CC(=O)Nc2ccc(N3CCN(C(=O)Nc4cccc5ccccc45)CC3)cc2)c(C)c1 [Compound 38] | 490 nM
Cc1ccc(C)c(N2CCN(CC(=O)Nc3ccc(C4CCN(C(=O)Nc5c(Cl)cccc5Cl)CC4)cc3)CC2)c1 [Compound 104] | 126 nM
O=C(CCCc1ccccc1)Nc1ccc(N2CCN(C(=O)C(O)c3cccc(O)c3)CC2)cc1 (stereo not shown) [Compound 340] | 3550 nM
O=C(CC1CCCN1)Nc1ccc(C2CCN(C(=O)Nc3c(Cl)cccc3Cl)CC2)cc1 (stereo not shown) [Compound 149] | 7240 nM
COc1ccc(CC(=O)Nc2ccc([N+]3([O-])CCN(C(=O)Nc4c(Cl)cc(C[N+]5([O-])CCCC5)cc4Cl)CC3)cc2)cc1 [Compound 300] | 20 nM
COc1ccc(NC(=O)N2CCN(c3ccc(NC(=O)CCCc4ccccc4)cc3)CC2)c([N+](=O)[O-])c1 [Compound 74] | 174 nM

Now from value to compound:

IC50 | SMILES
20.9 nM | O=C(CCC(=O)OCc1ccccc1)Nc1ccc(N2CCN(C(=O)Nc3c(Cl)cccc3Cl)CC2)cc1 [Compound 302]
135 nM | COC(=O)c1cc(Cl)c(NC(=O)N2CCN(c3ccc(NC(=O)CCCc4ccccc4)cc3)CC2)c(Cl)c1 [Compound 47]
1410 nM | COCCOCC(=O)N(C)CC(=O)Nc1ccc(N2CCN(C(=O)Nc3c(Cl)cccc3Cl)CC2)cc1 [Compound 163]
6920 nM | CCC(N)C(=O)Nc1ccc(C2CCN(C(=O)Nc3c(Cl)cccc3Cl)CC2)cc1 (stereo not shown) [Compound 151]
14.8 nM | CN(C)C(=O)CN(C)C(=O)c1cc(Cl)c(NC(=O)N2CCN(c3ccc(NC(=O)CCCc4ccccc4)cc3)CC2)c(Cl)c1 [Compound 296]
19.1 nM | CCCCC(=O)Nc1ccc(N2CCN(C(=O)Nc3c(Cl)cccc3Cl)CC2)cc1 [Compound 140]
646 nM | O=C(CCN1CCOCC1)Nc1ccc(C2CCN(C(=O)Nc3c(Cl)cccc3Cl)CC2)cc1 [Compound 125]
51.3 nM | CC(=O)NCCNC(=O)c1cc(Cl)c(NC(=O)N2CCN(c3ccc(NC(=O)CCCc4ccccc4)cc3)CC2)c(Cl)c1 [Compound 314]
6920 nM | NCCC(=O)Nc1ccc(C2CCN(C(=O)Nc3c(Cl)cccc3Cl)CC2)cc1 [Compound 150]
5130 nM | CC(=O)NCCC(=O)Nc1ccc(N2CCN(C(=O)Nc3c(Cl)cccc3Cl)CC2)cc1 [Compound 44]
1200 nM | O=C(CN1CCOCC1)Nc1ccc(C2CCN(C(=O)Nc3c(Cl)cccc3Cl)CC2)cc1 [Compound 111]
30.9 nM | CC(C)CC(=O)N(C)CC(=O)Nc1ccc(N2CCN(C(=O)Nc3c(Cl)cccc3Cl)CC2)cc1 [Compound 168]
7.76 nM | CN(CC(=O)Nc1ccc(C2CCN(C(=O)Nc3c(Cl)cccc3Cl)CC2)cc1)C(=O)OC(C)(C)C [Compound 40]
15.1 nM | CCOC(=O)CCCC(=O)Nc1ccc(N2CCN(C(=O)Nc3c(Cl)cccc3Cl)CC2)cc1 [Compound 297]
245 nM | C#CCCC(=O)Nc1ccc(C2CCN(C(=O)Nc3c(Cl)cccc3Cl)CC2)cc1 [Compound 129]
2880 nM | CC(=O)NC1(C(=O)Nc2ccc(N3CCN(C(=O)Nc4c(Cl)cccc4Cl)CC3)cc2)CCCC1 [Compound 2]
575 nM | O=C(CNCC1CC1)Nc1ccc(C2CCN(C(=O)Nc3c(Cl)cccc3Cl)CC2)cc1 [Compound 116]
97.7 nM | CC(C)(C)OC(=O)NCCC(=O)Nc1ccc(C2CCN(C(=O)Nc3c(Cl)cccc3Cl)CC2)cc1 [Compound 214]
6.76 nM | CC(C)(C)OC(=O)CCC(=O)Nc1ccc(N2CCN(C(=O)Nc3c(Cl)cccc3Cl)CC2)cc1 [Compound 279]
123 nM | O=C(CCCc1ccccn1)Nc1ccc(N2CCN(C(=O)Nc3c(Cl)cccc3Cl)CC2)cc1 [Compound 195]
120 nM | C#CCCC(=O)Nc1ccc(N2CCN(C(=O)Nc3c(Cl)cccc3Cl)CC2)cc1 [Compound 139]
115 nM | CC(C)(C)OC(=O)NCC(=O)Nc1ccc(C2CCN(C(=O)Nc3c(Cl)cccc3Cl)CC2)cc1 [Compound 212]
